Laboratory results: patent EP2951180B1, “2,6,7,8 SUBSTITUTED PURINES AS HDM2 INHIBITORS” (Merck Sharp & Dohme Corp., priority 2013, dated 2014)

The compounds below were run against T1, HDM2 (Homo sapiens, UniProt Q00987) (assay: FRET assay (HDM2 inhibition; method not described in this part)). Conditions: Table 3.
T1 construct: Thioredoxin (N); made in house; host or cells: E. coli strain BL21(DE3)Rosetta
Type: binding

T1 sequence (Q00987 17-125): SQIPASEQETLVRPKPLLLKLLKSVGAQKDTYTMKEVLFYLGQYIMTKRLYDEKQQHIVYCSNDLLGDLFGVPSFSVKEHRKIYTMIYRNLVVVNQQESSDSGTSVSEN

Compared with `Cc1cnc(-c2nc3nc(C(=O)O)nc(N[C@H](C)C4CCC4)c3n2Cc2ccc(C(F)(F)F)cc2)s1` [Example 3.7, 6-{[(1R)-1-cyclobutylethyl]amino}-8-(5-methyl-1,3-thiazol-2-yl)-7-[4-(trifluoromethyl)benzyl] -7H-purine-2-carboxylic acid], `C[C@@H](Nc1nc(C(=O)O)nc2nc(-c3nccs3)n(Cc3ccc(C(F)(F)F)cc3)c12)C1CCC1` [Example 3.9, 6-{[(1R)-1-cyclobutylethyl]amino}-8-(1,3-thiazol-2-yl)-7-[4-(trifluoromethyl)benzyl] -7H-purine-2-carboxylic acid] is 5.3-fold lower in IC50: 42 nM for the first, 7.86 nM for the second. The second is the more potent here.

`C[C@@H](Nc1nc(C(=O)O)nc2nc(-c3nccs3)n(Cc3ccc(Cl)cc3)c12)C1CC1` [Example 3.8, 7-(4-chlorobenzyl)-6-{[(1R)-1-cyclopropylethyl]amino}-8-(1,3-thiazol-2-yl)-7H-purine-2-carboxylic acid] showed an IC50 of 98.8 nM.

Same assay, conditions: Table 4

Compared with `CCOc1ccc(C)cc1-c1nc2nc(C(=O)O)nc(N[C@H](C)C3CCC3)c2n1Cc1ccc(Cl)cc1` [Example 4.1, (R)-7-(4-chlorobenzyl)-6-((1-cyclobutylethyl)amino)-8-(2-ethoxy-5-methylphenyl)-7H-purine-2-carboxylic acid], `CCOc1ccc(C)cc1-c1nc2nc(C(=O)O)nc(N[C@H](C)C3CC3)c2n1Cc1ccc(Cl)cc1` [Example 4.7, (R)-7-(4-chlorobenzyl)-6-((1-cyclopropylethyl)amino)-8-(2-ethoxy-5-methylphenyl)-7H-purine-2-carboxylic acid] is 3.8-fold higher in IC50: 32 nM for the first, 123 nM for the second. The first is the more potent here.

`Cc1ccc(C)c(-c2nc3nc(C(=O)O)nc(N[C@H](C)C4CCC4)c3n2Cc2ccc(Cl)cc2)c1` [Example 4.2, (R)-7-(4-chlorobenzyl)-6-((1-cyclobutylethyl)amino)-8-(2,5-dimethylphenyl)-7H-purine-2-carboxylic acid] and `COCCOc1ccc(C)cc1-c1nc2nc(C(=O)O)nc(N[C@H](C)C3CCC3)c2n1Cc1ccc(Cl)cc1` [Example 4.8, (R)-7-(4-chlorobenzyl)-6-((1-cyclobutylethyl)amino)-8-(2-(2-methoxyethoxy)-5-methylphenyl)-7H-purine-2-carboxylic acid] are within 1.5-fold of each other in IC50: 40.4 nM for the first, 55 nM for the second.

First: C=CCCOc1ccc(C)cc1-c1nc2nc(C(=O)O)nc(N[C@H](C)C3CC3)c2n1Cc1ccc(Cl)cc1 [Example 4.3, (R)-8-(2-(but-3-en-1-yloxy)-5-methylphenyl)-7-(4-chlorobenzyl)-6-((1-cyclopropylethyl)amino)-7H-purine-2-carboxylic acid]
Second: COCCOc1ccc(C)cc1-c1nc2nc(C(=O)O)nc(N[C@H](C)C3CC3)c2n1Cc1ccc(Cl)cc1 [Example 4.9, (R)-7-(4-chlorobenzyl)-6-((1-cyclopropylethyl)amino)-8-(2-(2-methoxyethoxy)-5-methylphenyl)-7H-purine-2-carboxylic acid]
The IC50 of the first is 3.8-fold higher: 104 nM for the first, 27.3 nM for the second.

First: COCCCOc1ccc(C)cc1-c1nc2nc(C(=O)O)nc(N[C@H](C)C3CCC3)c2n1Cc1ccc(Cl)cc1 [Example 4.4, (R)-7-(4-chlorobenzyl)-6-((1-cyclobutylethyl)amino)-8-(2-(3-methoxypropoxy)-5-methylphenyl)-7H-purine-2-carboxylic acid]
Second: COCCCOc1ccc(C)cc1-c1nc2nc(C(=O)O)nc(N[C@H](C)C3CC3)c2n1Cc1ccc(Cl)cc1 [Example 4.5, (R)-7-(4-chlorobenzyl)-6-((1-cyclopropylethyl)amino)-8-(2-(3-methoxypropoxy)-5-methylphenyl)-7H-purine-2-carboxylic acid]
The IC50 of the first is 3.3-fold lower: 48.7 nM for the first, 162 nM for the second. The first is the more potent here.

`Cc1ccc(OCCCO)c(-c2nc3nc(C(=O)O)nc(N[C@H](C)C4CCC4)c3n2Cc2ccc(Cl)cc2)c1` [Example 4.6, (R)-7-(4-chlorobenzyl)-6-((1-cyclobutylethyl)amino)-8-(2-(3-hydroxypropoxy)-5-methylphenyl)-7H-purine-2-carboxylic acid] gave an IC50 of 33.7 nM.
